From ChEMBL document CHEMBL1121748, “Antimycotic imidazoles. 5. Synthesis and antimycotic properties of 1-[[2-aryl-4-(arylalkyl)-1,3-dioxolan-2-yl]methyl]-1H-imidazoles” (1981)

Legend:
Trichophyton rubrum = assay: Antifungal activity against Trichophyton rubrum; assay type: functional
Candida albicans = assay: Antifungal activity against Candida albicans; assay type: functional
Mucor = assay: Antifungal activity against Mucor species; assay type: functional
Trichophyton benhamiae = assay: Antifungal activity against Trichophyton mentagrophytes; assay type: functional, trychophyton mentagrophytes
Candida tropicalis = assay: Antifungal activity against Candida tropicalis; assay type: functional
Saprolegnia = assay: Antifungal activity against Saprolegnia species; assay type: functional
[1] = tested on: Staphylococcus haemolyticus; assay: Antibacterial against Staphylococcus hemolyticus; assay type: functional
Microsporum canis = assay: Antifungal activity against Microsporum canis; assay type: functional
[2] = Ratio of animals cured to that of animals infected, tested in vivo for antifungal activity against vaginal candidosis in rat; 0/2; note: test concentration or dose not given here
[3] = tested on: Erysipelothrix rhusiopathiae; assay: Antibacterial activity against Erysipelothrix insidiosa; assay type: functional
Cryptococcus neoformans = assay: Antifungal activity against Cryptococcus neoformans; assay type: functional
Phialophora verrucosa = assay: Antifungal activity against Phialophora verrucosa; assay type: functional
[4] = Ratio of animals cured to that of animals infected, tested in vivo for antifungal activity against cutaneous candidosis in guinea pig; 0/2; assay type: functional; note: test concentration or dose not given here
Aspergillus fumigatus = assay: Antifungal activity against Aspergillus fumigatus; assay type: functional
Streptococcus pyogenes = assay: Antibacterial activity against Streptococcus pyogenes; assay type: functional
Sporothrix schenckii = assay: Antifungal activity against Sporothrix schenck ii; assay type: functional
[5] = Ratio of animals cured to that of animals […], Tested in vivo for antifungal activity against vaginal candidosis in rat; 0/2; assay type: functional
Throughout, for Ratio: test concentration or dose not given here.

SMILES	Inhibition (Trichophyton rubrum)	Inhibition (Candida albicans)	Inhibition (Mucor)	Inhibition (Trichophyton benhamiae)	Inhibition (Candida tropicalis)	Inhibition (Saprolegnia)	Inhibition [1]	Inhibition (Microsporum canis)	Ratio [2]	Inhibition [3]	Inhibition (Cryptococcus neoformans)	Inhibition (Phialophora verrucosa)	Ratio [4]	Inhibition (Aspergillus fumigatus)	Inhibition (Streptococcus pyogenes)	Inhibition (Sporothrix schenckii)	Ratio [5]
Clc1cccc(C2(Cn3ccnc3)OCC(c3ccc(Cl)cc3Cl)O2)c1 (stereo not drawn)	<1 µg/mL	100 µg/mL	100 µg/mL	10 µg/mL	100 µg/mL	100 µg/mL	100 µg/mL	100 µg/mL	0	10 µg/mL	100 µg/mL	>100 µg/mL	0	100 µg/mL	<1 µg/mL	10 µg/mL	–
Cc1ccc(C2COC(Cn3ccnc3)(c3ccc(Cl)cc3)O2)cc1 (stereo not drawn)	<1 µg/mL	100 µg/mL	100 µg/mL	<1 µg/mL	>100 µg/mL	100 µg/mL	100 µg/mL	<1 µg/mL	–	<1 µg/mL	<1 µg/mL	100 µg/mL	–	<1 µg/mL	<1 µg/mL	10 µg/mL	0
Clc1ccc(C2COC(Cn3ccnc3)(c3ccc(Br)cc3)O2)cc1 (stereo not drawn)	<1 µg/mL	>100 µg/mL	>100 µg/mL	<1 µg/mL	100 µg/mL	100 µg/mL	100 µg/mL	<1 µg/mL	0	1 µg/mL	100 µg/mL	100 µg/mL	0	10 µg/mL	1 µg/mL	10 µg/mL	–
Clc1ccc(C2(Cn3ccnc3)OCC(c3ccccc3)O2)c(Cl)c1 (stereo not drawn)	<1 µg/mL	100 µg/mL	100 µg/mL	<1 µg/mL	>100 µg/mL	100 µg/mL	>100 µg/mL	<1 µg/mL	–	10 µg/mL	100 µg/mL	100 µg/mL	–	<1 µg/mL	10 µg/mL	10 µg/mL	0
COc1ccc(CC2COC(Cn3ccnc3)(c3ccc(Cl)cc3Cl)O2)cc1 (stereo not drawn)	–	–	–	<1 µg/mL	–	10 µg/mL	100 µg/mL	<1 µg/mL	–	–	–	10 µg/mL	–	–	<1 µg/mL	–	0
Brc1ccc(C2COC(Cn3ccnc3)(c3ccc(Br)cc3)O2)cc1 (stereo not drawn)	<1 µg/mL	>100 µg/mL	10 µg/mL	<1 µg/mL	100 µg/mL	100 µg/mL	10 µg/mL	<1 µg/mL	0	<1 µg/mL	<1 µg/mL	100 µg/mL	0	<1 µg/mL	<1 µg/mL	10 µg/mL	–
Cc1ccc(C2(Cn3ccnc3)OCC(c3ccc(Br)cc3)O2)cc1 (stereo not drawn)	<1 µg/mL	>100 µg/mL	>100 µg/mL	<1 µg/mL	>100 µg/mL	10 µg/mL	10 µg/mL	<1 µg/mL	0	<1 µg/mL	>100 µg/mL	>100 µg/mL	0	<1 µg/mL	<1 µg/mL	>100 µg/mL	–
Cc1ccc(CC2COC(Cn3ccnc3)(c3ccc(Cl)cc3Cl)O2)cc1 (stereo not drawn)	<1 µg/mL	10 µg/mL	10 µg/mL	<1 µg/mL	>100 µg/mL	10 µg/mL	<1 µg/mL	<1 µg/mL	–	<1 µg/mL	<1 µg/mL	100 µg/mL	–	10 µg/mL	<1 µg/mL	10 µg/mL	0
Fc1ccc(CC2COC(Cn3ccnc3)(c3ccc(Cl)cc3Cl)O2)cc1 (stereo not drawn)	<1 µg/mL	100 µg/mL	<1 µg/mL	<1 µg/mL	100 µg/mL	10 µg/mL	10 µg/mL	<1 µg/mL	–	<1 µg/mL	10 µg/mL	100 µg/mL	–	10 µg/mL	10 µg/mL	10 µg/mL	0
Brc1ccc(C2(Cn3ccnc3)OCC(c3ccccc3)O2)cc1 (stereo not drawn)	<1 µg/mL	100 µg/mL	100 µg/mL	<1 µg/mL	>100 µg/mL	100 µg/mL	100 µg/mL	<1 µg/mL	0	10 µg/mL	10 µg/mL	100 µg/mL	0	100 µg/mL	<1 µg/mL	100 µg/mL	–
Clc1ccc(C2(Cn3ccnc3)OCC(CCc3ccc(-c4ccccc4)cc3)O2)c(Cl)c1 (stereo not drawn)	<1 µg/mL	>100 µg/mL	>100 µg/mL	<1 µg/mL	>100 µg/mL	10 µg/mL	100 µg/mL	<1 µg/mL	–	<1 µg/mL	10 µg/mL	>100 µg/mL	–	10 µg/mL	<1 µg/mL	10 µg/mL	0
Clc1ccccc1C1COC(Cn2ccnc2)(c2ccc(Br)cc2)O1 (stereo not drawn)	<1 µg/mL	100 µg/mL	10 µg/mL	<1 µg/mL	>100 µg/mL	100 µg/mL	100 µg/mL	<1 µg/mL	0	<1 µg/mL	<1 µg/mL	100 µg/mL	0	100 µg/mL	10 µg/mL	10 µg/mL	–
